Experimental data published in article PMC12693701, “Glucosinolate-Derived Metabolites from Barbarea vulgaris (Brassicaceae): Evaluation of Antimicrobial, Antioxidant, and Anti-Inflammatory Potentials” (Molecules, 2025).

How the values were obtained:
[1] = biological target: T1, Type I-B soybean lipoxygenase (Glycine max, UniProt P08170); test: LOX inhibition assay; type: biochemical; details: 100 µM; mean ± SD; read-out: Percentage of LOX Inhibition
T1 sequence (P08170 1-839): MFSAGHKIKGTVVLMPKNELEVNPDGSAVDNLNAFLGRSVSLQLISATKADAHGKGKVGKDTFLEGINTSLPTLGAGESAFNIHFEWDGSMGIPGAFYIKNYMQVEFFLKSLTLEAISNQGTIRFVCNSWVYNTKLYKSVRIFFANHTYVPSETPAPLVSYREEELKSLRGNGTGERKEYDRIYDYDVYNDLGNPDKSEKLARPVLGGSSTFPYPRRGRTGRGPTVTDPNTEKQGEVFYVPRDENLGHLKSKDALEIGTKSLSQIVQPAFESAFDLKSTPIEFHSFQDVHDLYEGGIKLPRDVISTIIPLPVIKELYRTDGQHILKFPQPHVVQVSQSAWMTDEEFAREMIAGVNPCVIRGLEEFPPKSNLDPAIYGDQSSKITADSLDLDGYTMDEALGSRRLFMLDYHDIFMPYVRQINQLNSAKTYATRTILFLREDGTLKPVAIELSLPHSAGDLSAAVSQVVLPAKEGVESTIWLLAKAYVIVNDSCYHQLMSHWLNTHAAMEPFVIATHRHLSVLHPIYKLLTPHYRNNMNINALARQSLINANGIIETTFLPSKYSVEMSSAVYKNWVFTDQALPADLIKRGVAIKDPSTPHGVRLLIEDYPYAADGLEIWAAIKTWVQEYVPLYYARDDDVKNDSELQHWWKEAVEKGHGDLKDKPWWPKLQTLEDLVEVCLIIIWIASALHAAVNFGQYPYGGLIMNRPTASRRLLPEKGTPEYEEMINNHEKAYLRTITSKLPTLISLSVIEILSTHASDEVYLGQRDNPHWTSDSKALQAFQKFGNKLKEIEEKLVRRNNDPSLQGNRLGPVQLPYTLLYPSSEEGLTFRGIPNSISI
Description: Type I-B soybean lipoxygenase is a commonly used enzyme for studying the anti-inflammatory properties of various compounds [19]. The lipoxygenase (LOX) inhibition assay measures the enzyme’s ability to convert sodium linoleate to 13-hydroperoxylinoleic acid. The inhibition of the enzyme by the investigated compounds was determined by measuring the absorbance at 234 nm for each prepared sample. Specifically, the test compound, Tris buffer, an enzyme solution (5 × 10^3 units/mL in saline), and sodium linoleate (3 mM in Tris buffer, pH 9), were added to a UV cuvette, and the absorbance was recorded. […] All measurements were performed in triplicate.

[2] = DPPH radical scavenging assay; details: mean ± SD
Description: The DPPH assay was used to assess the ability of the tested compounds to scavenge reactive radical species. Stock solutions of the investigated compounds were prepared in DMSO and then diluted with methanol to a final volume of 1000 µL. An equal volume of a 50 µM DPPH solution in methanol was then added to the prepared mixture. The final concentrations of the test compounds were 25, 50, and 100 µM. After thorough mixing, the samples were incubated in the dark at room temperature for 20 to 60 min. Methanol was used as a blank, and absorbance was measured at 517 nm after incubation. All measurements were performed in triplicate.

P. mirabilis = test: Inhibition of biofilm formation (crystal violet); type: cell-based, Proteus mirabilis
Description: (§1) The procedure involved preparing 96-well microtiter plates (Sarstedt, Nümbrecht, Germany) by adding 100 μL of Mueller-Hinton nutrient broth to each well. A 10 μL aliquot of bacterial suspension (adjusted to 1.0 McFarland for Gram-positive bacteria and 0.5 McFarland for Gram-negative bacteria) was added to the wells. The plates were then incubated at 37 °C for 48 h to allow biofilm formation. After incubation, the wells were washed twice with 200 μL of sterile 0.85% saline to remove non-adherent and weakly adherent cells. Biofilms formed by the adherent bacteria were fixed with 100 μL of methanol until fully evaporated. The biofilms were then stained using 0.1% (w/v) crystal violet (Fluka Chemie AG, Buchs, Switzerland) and left at room temperature for 20 min. After staining, excess dye was washed off with deionized water, followed by 96% ethanol. Controls included wells containing only nutrient broth to check for sterility and nonspecific binding. Background absorbance from the sterile medium, fixative, and dye was subtracted from the OD readings of the test samples. All experiments were performed in triplicate.
(§2) To assess the inhibition of biofilm formation, 96-well microtiter plates (Sarstedt, Nümbrecht, Germany) were prepared by dispensing 100 μL of Mueller-Hinton broth into each well. From stock solutions of tested compounds (at 10 mg/mL), 100 μL was added to the first row of the plate, followed by twofold serial dilutions (from 5 to 0.039 mg/mL) using a multichannel pipette (Eppendorf AG, Hamburg, Germany). Subsequently, 10 μL of fresh bacterial suspension (adjusted to 0.5 McFarland for Gram-negative and 1.0 McFarland for Gram-positive bacteria) was added to each well. The plates were incubated at 37 °C for 48 h. After incubation, the contents of the wells were carefully removed by tapping, and the remainder of the experiment was conducted following the procedure described above.
(§3) Controls consisted of wells containing only broth or broth with the tested compounds to assess sterility and nonspecific binding. Background absorbance was subtracted from test readings as described earlier. All experiments were performed in triplicate, and tetracycline (Sigma-Aldrich, St. Louis, MO, USA), dissolved in nutrient broth, was used as a reference compound.

S. aureus ATCC 25923 = test: Inhibition of biofilm formation (crystal violet); type: cell-based, Staphylococcus aureus
Description: as §1, §2, §3

B. subtilis ATCC 6633 = test: Inhibition of biofilm formation (crystal violet); type: cell-based, Bacillus subtilis
Description: as §1, §2, §3

S. enterica = test: Inhibition of biofilm formation (crystal violet); type: cell-based, Salmonella enterica; details: biofilm coverage reduced by 90%
Description: as §1, §2, §3

K. pneumoniae = test: Inhibition of biofilm formation (crystal violet); type: cell-based, Klebsiella pneumoniae
Description: as §1, §2, §3

[3] = biofilm coverage reduced by 50%
[4] = biofilm coverage reduced by 90%

## O=c1c(O)c(-c2ccc(O)c(O)c2)oc2cc(O)cc(O)c12 [Quercetin, reference compound]
[1]
  inhibition at 100 µM: 92 ± 0.9%
[2]; 25 µM, 20 min
  DPPH Scavenging Ability: 95.3 ± 0.8%
[2]; 25 µM, 60 min
  DPPH Scavenging Ability: 95.1 ± 0.9%
[2]; 50 µM, 20 min
  DPPH Scavenging Ability: 96.8 ± 1.0%
[2]; 50 µM, 60 min
  DPPH Scavenging Ability: 96.5 ± 0.9%
[2]; 100 µM, 20 min
  DPPH Scavenging Ability: 95.1 ± 0.9%
[2]; 100 µM, 60 min
  DPPH Scavenging Ability: 95.4 ± 0.8%

## CN(C)[C@@H]1C(O)=C(C(N)=O)C(=O)[C@@]2(O)C(O)=C3C(=O)c4c(O)cccc4[C@@](C)(O)[C@H]3C[C@@H]12 [Tetracycline, reference compound]
P. mirabilis; [3]
  BIC50: 320 µg/mL
P. mirabilis; [4]
  BIC90: >1000 µg/mL
S. aureus ATCC 25923; [3]
  BIC50: 250 µg/mL
S. aureus ATCC 25923; [4]
  BIC90: 300 µg/mL
B. subtilis ATCC 6633; [3]
  BIC50: ˂15.6 µg/mL
B. subtilis ATCC 6633; [4]
  BIC90: 15.6 µg/mL
S. enterica
  BIC90: 180 µg/mL
K. pneumoniae; [3]
  BIC50: 6 µg/mL
K. pneumoniae; [4]
  BIC90: 125 µg/mL
